The values below come from US20210220358A1, “1,3-THIAZOL-2-YL SUBSTITUTED BENZAMIDES FOR THE TREATMENT OF DISEASES ASSOCIATED WITH NERVE FIBER SENSITIZATION” (Bayer Aktiengesellschaft, priority 2018, published 2021).

Data set [1] has as its system healthy young males. Put plainly: Taste assessment test (Taste Strips) during clinical studies. The format is in vivo, humans. The source says: The Taste Strips (Burghart Messtechnik GmbH) are a validated test method for ascertaining tasting performance (ISO certified). The following concentrations have been applied on the taste strips: sweet: 0.4, 0.2, 0.1, 0.05 g/ml sucrose; sour: 0.3, 0.165, 0.09, 0.05 g/ml citric acid; salty: 0.25, 0.1, 0.04, 0.016 g/ml sodium chloride; bitter: 0.006, 0.0024, 0.0009, 0.0004 g/ml quinine hydrochloride. The Strips were used to check the tasting performance of the whole mouth by placing a Taste Strip on the tongue and closing the mouth (the subject can move the tongue). […] Afterwards and between the 4 taste strips the mouth was rinsed with a sip of tap water according to individual needs. […] The taste strips were presented in a pseudo-randomized order (increasing concentration for each quality) and placed on the tongue. The subject's task was to choose one of five possible answers on a form (sweet, sour, salty, bitter, no taste). Before and after each testing, the mouth was rinsed with a sip of tap water according to individual needs. The lowest concentrations of each taste quality should have been identified by half of the healthy subjects only; the highest concentration should have been identified by approximately 100% of the subjects.
The taste strips were tested under blinded conditions to the subject. The number of correctly identified taste strips per subjects was counted with the maximum number achievable being 18 points (4 concentration/taste quality plus to blank paper strips).

Data set [2] relates to healthy young males. Put plainly: Adverse events (side effect profile) in multiple dose study. The data set is classed as in vivo, humans. The procedure:
In a first part of a two-part, double-blind, placebo-controlled, randomized, parallel-group study safety and tolerability of ascending repeated oral doses of the drug to be tested are assessed in 47 healthy male volunteers, followed by a second two-way crossover administration of four different doses in 40 patients with refractory chronic cough to assess safety, tolerability and efficacy for proof of concept.
(§1) In the first part of the above-described protocol, 3-(5-Methyl-1,3-thiazol-2-yl)-5-[(3R)-tetrahydrofuran-3-yloxy]-N-{(1R)-1-[2-(trifluoromethyl)pyrimidin-5-yl]ethyl}-benzamide has been administered as multiple oral dose with increasing amounts starting from 10 mg per subject twice daily to 750 mg per subject twice daily in comparison with placebo to healthy young males. […] The treatment duration was 14 days.
In a first part of a two-part, double-blind, placebo-controlled, randomized, parallel-group study, the safety and tolerability of ascending repeated oral doses of the drug to be tested are assessed in 36 healthy male volunteers, followed by a second part with a two-way crossover administration of four different doses in patients with refractory chronic cough to assess safety, tolerability and efficacy for proof of concept.
(§2) The treatment duration was 14 days.

Data set [3] relates to healthy young males. As to the kind of experiment: Taste related adverse events recorded during clinical studies. The data set is classed as in vivo, humans.
Source text: Taste related adverse events describe adverse events that lead to a change in taste perception, e.g. dysgeusia (distortion of taste), hypogeusia (decrease in taste sensitivity) and ageusia (complete lack of taste).
Adverse events (AE) in the context of a clinical study are defined as any untoward medical occurrence (i.e. any unfavorable and unintended sign including abnormal laboratory findings, symptom or disease) in a patient or clinical investigation subject after providing written informed consent for participation in the study. Therefore, an AE may or may not be temporally or causally associated with the use of a medicinal (investigational) product.
3-(5-Methyl-1,3-thiazol-2-yl)-5-[(3R)-tetrahydrofuran-3-yloxy]-N-{(1R)-1-[2-(trifluoromethyl)pyrimidin-5-yl]ethyl}benzamide has been administered as single oral dose with increasing amounts starting from 10 mg per subject to 800 mg per subject in comparison with placebo to healthy young males.
as §1, §2

Another data set deals with human vagus nerve. Put plainly: Vagal depolarization - inhibition of human vagus nerve by P2X3 inhibitors (grease-gap recording). The following applies: TRPV4 agonist GSK 1016790A 300 nM; FIG. 1. The procedure: The aim of the study is to test the effects of P2X3 antagonists on the deoplarisation of human vagus nerve as an ex vivo measure of blocking Chronic Cough. Human vagal tissue was dissected from 4 human lungs (obtained from healthy tissue donors).
The tissue was assayed using an O2/CO2 gassed, grease-gap recording system as described in Birrell et al, Am J Respir Crit Care Med. 2009, 180:1042-1047; Bonvini et al, J Allergy Clin Immunol. 2016, 138 (1), 249-261, Bonvini et al, Naunyn Schmiedebergs Arch Pharmacol. 2015, 388: 401-420. Briefly, after the tissue had stabilised it was exposed to two 2 minute challenges with a sub-maximal concentration of agonists (TRPV4 agonist GSK 1016790A, 300 nM). Sub-maximal concentration means a concentration where no full efficacy is observed, i.e. stimulation with the agonist within the dynamic range. Typical values are 80% of the maximal efficacy that can be achieved. The tissue was then exposed to vehicle (0.1 Vol % DMSO solution in Krebs buffer) or test compound for 10 minutes and then the tissue was re-challenged with agonist in the presence of the test compound. […] Only one experiment was performed on each piece of tissue and n=4 means tissue from 4 different lungs[…]. The data was electrophysiologically recorded as actual depolarisation levels and presented as mean percentage inhibition. Results can be found in FIG. 1.

Data set [4] has as its system human P2X3 and human P2X2/3 receptors. Particulars: cited from earlier work.
The subject of a further data set is treated subjects. Particulars: Clinical Phase II trials (Abdulqawi et al 2015; Strand et al 2015); cited from earlier work.
[5] abbreviates: multiple oral dose 10 mg to 750 mg twice daily, 14 days.

With `Cc1cnc(-c2cc(O[C@@H]3CCOC3)cc(C(=O)N[C@H](C)c3cnc(C(F)(F)F)nc3)c2)s1` [3-(5-methyl-1,3-thiazol-2-yl)-5-[(3R)-tetrahydrofuran-3-yloxy]-N-{(1R)-1-[2-(trifluoromethyl)pyrimidin-5-yl]ethyl}benzamide], the “effects on taste perception based on the taste assessment test” value in the data set on healthy young males [1] (setting [5]) is “no relevant effects on taste perception (No relevant effects on taste perception in the context of the present invention mean that no effect on taste perception has been observed in at least 80% of subjects under treatment according to the above-described protocol over a period of 14 days)”; in the data set on healthy young males [1] (single oral dose 10 mg to 800 mg, tests at baseline, 3 hrs and 6 days after drug administration) it was “no relevant effects on taste perception were observed”. For the same molecule, the “changes in taste scores under treatment” value in the data set with healthy young males [1] (single oral dose 10 mg to 800 mg) was “no significant or relevant changes in taste scores were observed”. In addition, in the data set with healthy young males [2] (multiple dose study, 50 mg dose), the nausea result is “one case of nausea”. For the same molecule, in the data set on healthy young males [2] (setting [5]), the “adverse events physical dependency, increased heart rate, xerostomia, constipation, drowsiness and sedation” value is on record as “no such adverse events”. Also, the “taste AE duration” value was determined as 2 h with healthy young males [3] (1 subject treated with 200 mg twice daily, on day 11) and 0.5 h in the data set with healthy young males [3] (one subject treated with 750 mg twice daily, on day 3). Moreover, the “influence on perception of taste based on spontaneously reported adverse events” value in the data set with healthy young males [3] (setting [5]) is listed as “in few subjects only”. Also, in the data set on healthy young males [3] (one subject treated with 200 mg twice daily), the “course of change in taste perception” value was “repeatedly occurring during continued treatment starting on treatment day 4 and lasting until 5 days after end of treatment”. In the data set on healthy young males [3] (single oral dose, 10 mg to 800 mg per subject, versus placebo), the “taste related adverse events” value was “No taste related adverse were observed”.

On to `COc1cc(C(C)C)c(Oc2cnc(N)nc2N)cc1S(N)(=O)=O` [AF-219, 5-(2,4-diamino-pyrimidin-5-yloxy)-4-isopropyl-2-methoxy-benzenesulfonamide], for which the “effect size / efficacy in blocking vagus nerve depolarization, compared between compounds” value in the data set with human vagus nerve was “the effect size observed was the same”. For the same molecule, the “selectivity P2X3 homomer versus P2X2/3” value in data set [4] is “P2X3 and P2X2/3 non-selective”. Further, the “taste disturbances in treated subjects” value with treated subjects is listed as “leads to taste disturbances in treated subjects”.
